Measurements reported in US8334239B2, “High affinity VEGF-receptor antagonists” (The Board of Regents of the University of Texas System, priority 2007, dated 2012).
Entries after “also recorded” stand apart in the source; their conditions may differ. Where two headings read alike, the source gives them in different places. Starred links: 1 amine or outer side, 2 acyl side, 3 side chain; linkers in the order of their positions; H or OH if unused. Non-standard residues stand in square brackets, D forms with d. Residues, ends and D or L forms follow the SMILES beside them. Gly(N-piperonyl) = O=C(O)CNCc1ccc2c(c1)OCO2; X1 = CC(c1ccccc1)N(CC(=O)[*:2])[*:1]; Nleu = CC(C)CNCC(=O)O; Nlys = NCCCCNCC(=O)O

Columns and labels:
GST = assay: ELISA-like binding assay on immobilized GST; details: same ELISA-like assay
HUVEC = HUVEC tube formation assay; format: cell-based, human; details: 10 μM, 1.3 nM VEGF
Protocol: HUVEC tube formation assay. Endothelial cell medium gel (ECM gel) was thawed overnight at 4° C. refrigerator and added 50 μl to each well of pre-chilled white, clear bottom 96-well plate. Incubated for 30 min to facilitate the gel formation. […] 150 μl of these treated cell suspension (20,000 cells) was added per well and incubated at 37° C. and visualized tube formation under the light microscope after 16 hours (10× magnification).

VEGFR2 [1] = target: T1, VEGFR2 (Homo sapiens, UniProt P35968); assay: VEGF-induced VEGFR2 autophosphorylation in PAE/KDR cells, Western blot; format: cell-based; parameters: allow the library to be screened against the full-length receptor in as natural an environment as possible; host or cells: PAE/KDR (porcine aortic endothelial cells expressing human KDR)
Protocol: Western blots. Experiments were conducted using PAE/KDR cells that were grown on 6-well plates. […] The blots were probed with Phospho-VEGF receptor 2 (Tyr1175) (19A10) rabbit monoclonal or Total VEGFR2 primary antibodies (Cell signaling) and HRP-conjugated secondary antibody (BioRad).
Functional characterization of the VEGFR2-binding peptoids. GU40C and GU40E were then tested for their ability to modulate VEGFR function. Of course, since the screen simply demanded binding of the peptoid to the receptor, it was not a given that this would be the case. […] Western blot analysis using phospho-VEGFR2-specific antibodies was then employed to monitor receptor activation.
To do so, the inventors examined the effect of the peptoid on VEGF-induced VEGFR2 autophosphorylation by Western blotting, as described earlier.
Target sequence in this assay (P35968 20-1356): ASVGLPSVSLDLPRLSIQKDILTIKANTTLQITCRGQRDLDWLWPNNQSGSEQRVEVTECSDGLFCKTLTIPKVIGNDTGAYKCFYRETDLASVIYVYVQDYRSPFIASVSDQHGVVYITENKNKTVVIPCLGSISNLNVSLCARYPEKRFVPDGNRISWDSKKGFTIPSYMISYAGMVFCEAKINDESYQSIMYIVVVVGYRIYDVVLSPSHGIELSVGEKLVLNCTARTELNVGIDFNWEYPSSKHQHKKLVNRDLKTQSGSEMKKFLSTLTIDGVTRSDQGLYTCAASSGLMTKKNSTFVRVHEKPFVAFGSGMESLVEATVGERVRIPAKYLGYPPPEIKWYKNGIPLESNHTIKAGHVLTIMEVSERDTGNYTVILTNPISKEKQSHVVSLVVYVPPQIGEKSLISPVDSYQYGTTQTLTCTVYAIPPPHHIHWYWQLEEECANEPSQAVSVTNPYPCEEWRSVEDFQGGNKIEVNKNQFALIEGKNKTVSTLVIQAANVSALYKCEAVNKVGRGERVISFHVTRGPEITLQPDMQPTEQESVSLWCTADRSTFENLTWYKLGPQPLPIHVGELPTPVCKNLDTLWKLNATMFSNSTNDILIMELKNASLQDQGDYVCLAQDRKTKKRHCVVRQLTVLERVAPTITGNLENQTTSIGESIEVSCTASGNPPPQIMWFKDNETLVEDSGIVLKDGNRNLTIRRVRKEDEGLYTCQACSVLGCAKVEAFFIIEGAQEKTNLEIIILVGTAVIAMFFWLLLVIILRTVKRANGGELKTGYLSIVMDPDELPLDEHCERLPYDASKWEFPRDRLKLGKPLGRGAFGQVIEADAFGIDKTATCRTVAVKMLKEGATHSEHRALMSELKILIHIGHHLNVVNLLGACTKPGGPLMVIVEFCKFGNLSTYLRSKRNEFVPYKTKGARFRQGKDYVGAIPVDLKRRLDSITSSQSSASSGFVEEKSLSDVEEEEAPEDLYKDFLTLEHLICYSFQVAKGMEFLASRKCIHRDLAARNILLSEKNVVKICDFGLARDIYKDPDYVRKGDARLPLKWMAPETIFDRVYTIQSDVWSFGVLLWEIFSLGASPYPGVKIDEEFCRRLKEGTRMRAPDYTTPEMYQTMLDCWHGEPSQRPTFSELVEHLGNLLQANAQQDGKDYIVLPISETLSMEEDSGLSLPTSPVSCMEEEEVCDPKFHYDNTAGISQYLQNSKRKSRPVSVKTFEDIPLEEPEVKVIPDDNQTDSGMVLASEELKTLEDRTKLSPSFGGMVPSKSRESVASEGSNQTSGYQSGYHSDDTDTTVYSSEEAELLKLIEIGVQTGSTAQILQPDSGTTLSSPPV

VEGFR2 [2] = target: T1, VEGFR2; assay: ELISA-like binding assay, fluoresceinated peptoids on immobilized VEGFR2 extracellular domain; parameters: VEGFR2 extracellular domain (amino acids 1-764 fused to 6× histidine-tagged Fc of human IgG, via the peptide IEGRMD; R&D Systems); linker peptide IEGRMD (internal); Fc of human IgG (C); 6xHis (C); purchased R&D Systems; details: for Kd: ELISA-like assay
Protocol: ELISA based binding assay. White, clear bottom 96-well plates (Corning Inc.) were coated with of 1 μg/ml recombinant human VEGFR2 protein (R&D Systems) using the sensitizing buffer (0.621 g NaHCO3 & 0.275 g Na2CO3 dissolved on 100 ml of ddH2O, pH=9.5) overnight at 4° C. Washed with 3×200 μl of wash buffer 1×PBS with 0.05% Tween-20 and blocked with Startingblock blocking buffer (Pierce). Added 50 μl of serial dilutions of FITC labeled peptoids dissolved in Startingblock blocking buffer to each well & allowed to react for 1 h at room temperature. Washed with 5×200 μl of wash buffer 1×PBS with 0.05% Tween-20 and remaining fluorescence was measured at 520 nm using the plate reader.
The isolated peptoids are VEGFR2 ligands. Two of the ‘hits’ from this screen, GU40C and GU40E (see FIG. 2) were resynthesized, both as free compounds and with C-terminal Cys (for C-terminal fluorescein tagging via maleimide chemistry), cleaved from the beads and purified to apparent homogeneity by reverse phase HPLC. […] The association of these peptoids with VEGFR2 was evaluated using an ELISA-like assay. A commercially available fusion protein containing the VEGFR2 extracellular domain (amino acids 1-764 fused to 6× histidine-tagged Fc of human IgG, via the peptide IEGRMD; R&D Systems) was plated into 96-well plates and then mixed with various concentrations of […] Fluorescein (FITC)-labeled peptoid. After washing away unbound peptoid, the remaining fluorescence emission signal was measured at 520 nm. In this assay purified VEGFR2 protein was used instead of the whole PAE/KDR cells that over express VEGFR2, in order to confirm these compounds were binding only to the receptor.
Target sequence in this assay (P35968 20-764): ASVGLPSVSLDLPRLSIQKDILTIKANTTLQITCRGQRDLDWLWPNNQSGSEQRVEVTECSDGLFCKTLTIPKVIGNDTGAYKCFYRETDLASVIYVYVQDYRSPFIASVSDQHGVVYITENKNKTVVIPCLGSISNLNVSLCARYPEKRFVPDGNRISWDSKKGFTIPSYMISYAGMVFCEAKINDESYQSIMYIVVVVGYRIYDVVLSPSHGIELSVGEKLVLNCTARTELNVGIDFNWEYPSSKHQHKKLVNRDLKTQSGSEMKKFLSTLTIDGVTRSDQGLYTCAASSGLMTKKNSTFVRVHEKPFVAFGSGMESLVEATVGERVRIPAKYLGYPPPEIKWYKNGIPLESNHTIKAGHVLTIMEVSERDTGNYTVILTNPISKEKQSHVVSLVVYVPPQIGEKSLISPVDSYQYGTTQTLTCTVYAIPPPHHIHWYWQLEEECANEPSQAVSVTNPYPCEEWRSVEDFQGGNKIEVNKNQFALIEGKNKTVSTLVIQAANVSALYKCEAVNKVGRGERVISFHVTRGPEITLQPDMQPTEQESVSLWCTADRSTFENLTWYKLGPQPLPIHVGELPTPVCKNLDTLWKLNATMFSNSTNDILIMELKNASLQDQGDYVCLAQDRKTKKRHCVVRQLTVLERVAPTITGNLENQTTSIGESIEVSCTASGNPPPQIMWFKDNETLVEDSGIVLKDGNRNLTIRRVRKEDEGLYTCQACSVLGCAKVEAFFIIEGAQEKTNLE

VEGFR2 ECD = VEGFR2 ECD (Homo sapiens, UniProt P35968); assay: Competitive binding assay against fluoresceinated GU40C; details: increasing concentrations of unlabelled competitor
VEGFR2 ECD, sequence (P35968 20-764 limits assumed): as the sequence (P35968 20-764) above
From the text: FIGS. 17A-B. GU40C truncation study results. (FIG. 17A) Downward arrows show GU40C truncation positions (FIG. 17B) Competitive binding assay results; increasing concentrations of unlabelled GU40C and truncated derivatives were competed with a constant amount of fluoraceinated GU40C. Symbols represent; GU40C (□), 8-mer (▴), 7-mer (▾), 6-mer (⋄), 5-mer (∘), 4-mer (▪), control (x).
To identify the main chain amides important for binding, the inventors synthesized five different truncated versions of GU40C, each containing all four of the N-terminal residues (FIG. 17A). Increasing concentrations of these truncated versions were competed with a constant amount of fluoresceinated GU40C for binding to the VEGR2 ECD. […] Elimination of the first C-terminal residue weakened binding about ten-fold (FIG. 17B). Further elimination of the next three C-terminal residues further diminished binding only slightly. However, deletion of the next residue essentially abolished binding of the peptoid to the VEGFR2 ECD.

CD105 = target: T2, CD105 (Homo sapiens, UniProt P17813); assay: ELISA-like binding assay on immobilized CD105; details: same ELISA-like assay
T2 sequence (P17813 26-658): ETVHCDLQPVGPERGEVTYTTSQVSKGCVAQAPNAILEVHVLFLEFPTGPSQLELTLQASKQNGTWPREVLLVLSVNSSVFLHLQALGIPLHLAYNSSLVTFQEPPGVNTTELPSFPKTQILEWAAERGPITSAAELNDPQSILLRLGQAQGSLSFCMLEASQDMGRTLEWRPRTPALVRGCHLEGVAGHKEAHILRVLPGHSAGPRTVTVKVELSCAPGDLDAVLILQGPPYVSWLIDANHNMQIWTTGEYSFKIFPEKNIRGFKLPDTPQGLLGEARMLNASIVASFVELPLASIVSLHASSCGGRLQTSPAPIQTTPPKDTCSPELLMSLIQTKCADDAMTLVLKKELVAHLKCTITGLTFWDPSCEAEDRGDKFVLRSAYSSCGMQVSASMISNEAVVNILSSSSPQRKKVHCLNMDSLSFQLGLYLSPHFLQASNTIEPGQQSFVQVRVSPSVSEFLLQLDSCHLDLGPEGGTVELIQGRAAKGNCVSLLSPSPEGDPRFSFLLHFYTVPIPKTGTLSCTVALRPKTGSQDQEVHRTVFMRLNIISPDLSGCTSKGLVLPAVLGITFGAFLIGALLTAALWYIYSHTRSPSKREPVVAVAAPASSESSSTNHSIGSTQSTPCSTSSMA

With `CC(C)CN(CC(=O)N(CCCCN)CC(=O)N(CC(=O)N(CC(=O)N(CCCCN)CC(=O)N(CC(=O)N(CCCCN)CC(=O)N(CCCCN)CC(=O)O)CC(C)C)Cc1ccc2c(c1)OCO2)C(C)c1ccccc1)C(=O)CNCCCCN` (centres unmarked) [GU40C, Nlys-Nleu-Nlys-Nmba-Npip-Nlys-Nleu-Nlys-Nlys] (H-[Nlys][Nleu][Nlys][X1][Gly(N-piperonyl)][Nlys][Nleu][Nlys][Nlys]-OH) the “binding to GST” value (GST) was “did not bind detectably”, the “effect on VEGF-induced HUVEC tube formation” value (HUVEC) was “slight effect; also recorded: small effect” and the “agonist activity on VEGFR2 phosphorylation” value (VEGFR2 [1]; PAE/KDR cells, Western blot) was “Neither peptoid at any concentration tested evinced agonist activity; also recorded: None of the peptoids exhibited agonist activity”. For the same molecule, the “effect on VEGF-induced VEGFR2 phosphorylation (in words)” value (VEGFR2 [1]; monomeric peptoids, 500 μM, 1.3 nM VEGF) was “weak antagonists”, the “inhibition of VEGFR2 phosphorylation” value (VEGFR2 [1]; peptoid 500 μM, 1.3 nM VEGF, PAE/KDR cells) was “approximately 75%” and the Kd (VEGFR2 [2]; immobilized VEGFR2 extracellular domain, read-out: KD) was 2850 ± 400 nM. For the same molecule, the Kd (VEGFR2 [2]; read-out: dissociation constant (KD)) was roughly 2000 nM, the “binding to VEGFR2 ECD (in words)” value (VEGFR2 [2]; ELISA-like binding assay) was “able to display binding” and the “binding after pre-incubation of immobilized receptor with unlabeled VEGF” value (VEGFR2 [2]; fluoresceinated peptoid) was “almost no binding”. For the same molecule, the “competition with fluoresceinated GU40C for binding to VEGFR2 ECD” value (VEGFR2 ECD) was “competed efficiently” and the “binding to CD105” value (CD105) was “did not bind detectably”.
